Assays:
[1] = biological target: Mitogen-activated protein kinase kinase kinase 2 (Homo sapiens, UniProt Q9Y2U5); assay: Inhibition of recombinant full length human MEKK2 using myelin basic protein as substrate incubated for 40 mins in presence of [gamma-33ATP by radiometric scintillation counting analysis
[2] = biological target: PI3-kinase p110-alpha/p85-alpha (Homo sapiens, UniProt P42336, E542K); assay: Inhibition of recombinant human full length PI3K p110alpha/p85alpha E542K mutant using phosphatidylinositol 4,5-bisphosphate as substrate incubated for 40 mins in presence of [gamma33P]ATP by radiometric scintillation counting analysis
[3] = biological target: Mitogen-activated protein kinase 12 (Homo sapiens, UniProt P53778); assay: Inhibition of recombinant human full length SAPK3 using myelin basic protein as substrate incubated for 40 mins in presence of [gamma33P]ATP by radiometric scintillation counting analysis
[4] = biological target: Tyrosine-protein kinase HCK (Homo sapiens, UniProt P08631); assay: Inhibition of human recombinant activated HCK (230 to 497 residues) using GGMEDIYFEFMGG as substrate after 40 mins by [gamma-33ATP] radiometric assay
[5] = biological target: Proto-oncogene tyrosine-protein kinase receptor Ret (Homo sapiens, UniProt P07949, V804M); assay: Inhibition of recombinant human Ret V804M mutant (658 to end residues) using KKKVSRSGLYRSP as substrate incubated for 40 mins in presence of [gamma33P]ATP by radiometric scintillation counting analysis
[6] = biological target: Tau-tubulin kinase 1 (Homo sapiens, UniProt Q5TCY1); assay: Inhibition of recombinant human TTBK1 (1 to 479 residues) using casein as substrate incubated for 40 mins in presence of [gamma33P]ATP by radiometric scintillation counting analysis
[7] = biological target: Eukaryotic translation initiation factor 2-alpha kinase 1 (Homo sapiens, UniProt Q9BQI3); assay: Inhibition of human recombinant HRI (140 to end residues) using RSRSRSRSRSRSR as substrate after 120 mins by [gamma-33ATP] radiometric assay
[8] = biological target: CDK9/cyclin T1 (Homo sapiens, UniProt P50750); assay: Inhibition of recombinant full length human CDK9/cyclinT1 using KTFCGTPEYLAPE as substrate incubated for 40 mins in presence of [gamma-33ATP] by radiometric scintillation counting analysis; type: protein-complex assay
CDK9/cyclin T1, sequence (O60563 whole entry, the tested form may be a part): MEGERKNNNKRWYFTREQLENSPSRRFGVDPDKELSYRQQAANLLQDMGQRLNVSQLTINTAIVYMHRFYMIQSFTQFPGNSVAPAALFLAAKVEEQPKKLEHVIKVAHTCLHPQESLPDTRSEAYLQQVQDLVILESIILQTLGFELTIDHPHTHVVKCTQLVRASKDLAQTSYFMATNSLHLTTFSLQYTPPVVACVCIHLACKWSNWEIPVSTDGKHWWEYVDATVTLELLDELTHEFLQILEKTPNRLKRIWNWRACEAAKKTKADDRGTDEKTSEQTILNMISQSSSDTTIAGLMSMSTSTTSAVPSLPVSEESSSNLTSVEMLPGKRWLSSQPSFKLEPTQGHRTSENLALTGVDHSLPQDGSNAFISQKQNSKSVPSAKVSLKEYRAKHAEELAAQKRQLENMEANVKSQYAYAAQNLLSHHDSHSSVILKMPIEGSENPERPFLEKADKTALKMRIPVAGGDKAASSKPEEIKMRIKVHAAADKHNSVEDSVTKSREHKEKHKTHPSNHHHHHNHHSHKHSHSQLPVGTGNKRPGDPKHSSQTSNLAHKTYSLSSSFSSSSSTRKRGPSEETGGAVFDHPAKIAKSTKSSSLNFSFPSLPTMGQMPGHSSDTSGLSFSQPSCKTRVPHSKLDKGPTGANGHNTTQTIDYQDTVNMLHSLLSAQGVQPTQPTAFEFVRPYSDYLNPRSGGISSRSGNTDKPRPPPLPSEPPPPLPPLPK
CDK9/cyclin T1, sequence (P50750 whole entry, the tested form may be a part): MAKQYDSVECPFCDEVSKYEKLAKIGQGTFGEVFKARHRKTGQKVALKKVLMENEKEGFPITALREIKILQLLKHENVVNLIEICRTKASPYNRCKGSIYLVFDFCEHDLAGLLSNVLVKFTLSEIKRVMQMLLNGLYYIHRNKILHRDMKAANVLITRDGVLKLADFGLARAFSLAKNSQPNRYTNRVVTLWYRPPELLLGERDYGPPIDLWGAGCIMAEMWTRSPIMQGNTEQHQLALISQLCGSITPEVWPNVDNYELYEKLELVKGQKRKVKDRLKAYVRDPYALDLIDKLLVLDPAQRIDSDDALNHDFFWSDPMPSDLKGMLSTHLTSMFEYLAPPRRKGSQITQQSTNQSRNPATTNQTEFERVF

[9] = biological target: Insulin receptor-related protein (Homo sapiens, UniProt P14616); assay: Inhibition of human recombinant IRR (943 to 1266 residues) using myelin basic protein as substrate after 40 mins by [gamma-33ATP] by radiometric scintillation counting analysis
Insulin receptor-related protein, sequence (P14616 27-742 limits assumed): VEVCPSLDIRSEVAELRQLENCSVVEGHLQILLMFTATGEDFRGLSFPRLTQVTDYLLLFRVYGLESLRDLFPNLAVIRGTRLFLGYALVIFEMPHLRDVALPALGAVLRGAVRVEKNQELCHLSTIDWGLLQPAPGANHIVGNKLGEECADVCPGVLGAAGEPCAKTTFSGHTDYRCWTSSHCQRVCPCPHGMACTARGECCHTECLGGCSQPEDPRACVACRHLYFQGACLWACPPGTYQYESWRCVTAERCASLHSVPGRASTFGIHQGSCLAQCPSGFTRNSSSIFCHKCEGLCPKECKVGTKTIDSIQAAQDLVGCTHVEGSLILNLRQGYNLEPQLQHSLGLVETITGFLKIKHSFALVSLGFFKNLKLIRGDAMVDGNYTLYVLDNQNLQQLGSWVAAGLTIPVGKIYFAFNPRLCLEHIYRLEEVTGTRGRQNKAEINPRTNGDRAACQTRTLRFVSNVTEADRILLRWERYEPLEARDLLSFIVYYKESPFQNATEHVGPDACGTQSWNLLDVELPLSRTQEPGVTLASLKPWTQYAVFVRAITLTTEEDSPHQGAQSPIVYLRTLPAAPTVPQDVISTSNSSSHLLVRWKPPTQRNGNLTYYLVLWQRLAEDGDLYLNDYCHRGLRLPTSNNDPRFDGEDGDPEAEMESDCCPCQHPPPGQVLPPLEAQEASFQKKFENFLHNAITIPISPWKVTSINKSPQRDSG
Insulin receptor-related protein, sequence (P14616 747-1297 limits assumed): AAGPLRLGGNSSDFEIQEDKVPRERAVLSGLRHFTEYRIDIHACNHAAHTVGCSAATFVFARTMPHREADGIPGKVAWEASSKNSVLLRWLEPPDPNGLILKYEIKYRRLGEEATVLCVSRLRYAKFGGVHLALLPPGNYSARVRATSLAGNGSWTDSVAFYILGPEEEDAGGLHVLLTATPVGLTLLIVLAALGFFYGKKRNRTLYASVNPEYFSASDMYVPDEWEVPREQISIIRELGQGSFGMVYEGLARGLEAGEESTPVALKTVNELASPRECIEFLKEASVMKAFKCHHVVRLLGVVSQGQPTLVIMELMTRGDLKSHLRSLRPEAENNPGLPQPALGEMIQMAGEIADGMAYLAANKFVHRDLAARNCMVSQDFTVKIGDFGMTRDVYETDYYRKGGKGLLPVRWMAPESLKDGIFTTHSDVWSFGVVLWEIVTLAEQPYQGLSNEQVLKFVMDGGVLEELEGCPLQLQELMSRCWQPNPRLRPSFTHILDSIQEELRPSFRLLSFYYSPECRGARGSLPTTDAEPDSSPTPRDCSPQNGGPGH

[10] = biological target: Tyrosine-protein kinase Lyn (Homo sapiens, UniProt P07948); assay: Inhibition of recombinant full length human Lyn using poly(Glu, Tyr) 4:1 as substrate after 40 mins in presence of [gamma-33ATP] by radiometric scintillation counting analysis
Tyrosine-protein kinase Lyn, sequence (P07948 whole entry): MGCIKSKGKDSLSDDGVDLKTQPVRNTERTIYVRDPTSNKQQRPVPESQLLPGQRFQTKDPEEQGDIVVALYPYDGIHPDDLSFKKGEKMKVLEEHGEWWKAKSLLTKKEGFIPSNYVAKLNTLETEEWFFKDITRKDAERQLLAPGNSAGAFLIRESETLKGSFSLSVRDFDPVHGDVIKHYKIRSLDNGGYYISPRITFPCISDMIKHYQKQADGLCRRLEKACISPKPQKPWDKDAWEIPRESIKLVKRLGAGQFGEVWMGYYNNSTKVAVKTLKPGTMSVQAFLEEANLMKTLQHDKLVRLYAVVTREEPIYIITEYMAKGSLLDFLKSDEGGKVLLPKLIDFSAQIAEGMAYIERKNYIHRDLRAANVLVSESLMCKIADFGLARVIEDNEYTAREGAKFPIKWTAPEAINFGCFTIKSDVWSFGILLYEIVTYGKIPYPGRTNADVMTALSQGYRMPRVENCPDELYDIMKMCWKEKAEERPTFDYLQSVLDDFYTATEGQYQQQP

[11] = biological target: Wee1-like protein kinase 2 (Homo sapiens, UniProt P0C1S8); assay: Inhibition of recombinant full length human WEE1b using LSNLYHQGKFLQTFCGSPLYRRR as substrate incubated for 120 mins in presence of [gamma33P]ATP by radiometric scintillation counting analysis
Wee1-like protein kinase 2, sequence (P0C1S8 whole entry, the tested form may be a part): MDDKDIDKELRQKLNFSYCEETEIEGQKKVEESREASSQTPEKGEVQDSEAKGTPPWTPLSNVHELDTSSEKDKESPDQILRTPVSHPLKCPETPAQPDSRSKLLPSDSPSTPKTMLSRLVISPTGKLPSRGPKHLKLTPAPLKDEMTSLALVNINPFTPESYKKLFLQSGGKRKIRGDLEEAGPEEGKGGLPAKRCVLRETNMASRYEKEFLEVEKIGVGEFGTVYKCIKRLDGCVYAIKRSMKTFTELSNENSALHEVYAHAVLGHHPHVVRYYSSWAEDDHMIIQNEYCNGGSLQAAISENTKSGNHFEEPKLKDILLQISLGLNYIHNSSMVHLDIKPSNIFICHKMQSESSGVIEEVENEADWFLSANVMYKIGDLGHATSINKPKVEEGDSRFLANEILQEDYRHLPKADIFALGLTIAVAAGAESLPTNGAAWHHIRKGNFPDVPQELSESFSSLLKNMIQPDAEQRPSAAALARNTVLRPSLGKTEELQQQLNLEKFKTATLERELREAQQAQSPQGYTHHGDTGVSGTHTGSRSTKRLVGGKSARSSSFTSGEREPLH

[12] = biological target: Myosin-IIIb (Homo sapiens, UniProt Q8WXR4); assay: Inhibition of recombinant human MYO3B (1 to 326 residues) using RLGRDKYKTLRQI as substrate measured after 40 mins in presence of [gamma33P]ATP by radiometric scintillation counting analysis
[13] = biological target: Protein kinase C beta type (Homo sapiens, UniProt P05771); assay: Inhibition of recombinant human PKCbeta1 (2 to end residues) using histone H1 as substrate incubated for 40 mins in presence of [gamma33P]ATP by radiometric scintillation counting analysis
[14] = biological target: Hepatocyte growth factor receptor (Homo sapiens, UniProt P08581, D1228N); assay: Inhibition of recombinant human MET A1209G/V1290L/D1246N triple mutant (974 to end residues) using KKKGQEEEYVFIE as substrate incubated for 40 mins in presence of [gamma-33ATP by radiometric scintillation counting analysis
[15] = biological target: cAMP-dependent protein kinase catalytic subunit beta (Homo sapiens, UniProt P22694); assay: Inhibition of recombinant full length human PKAcbeta using KEAKEKRQEQIAKR as substrate incubated for 40 mins in presence of [gamma33P]ATP by radiometric scintillation counting analysis
[16] = biological target: Ephrin type-A receptor 1 (Homo sapiens, UniProt P21709); assay: Inhibition of recombinant human EphA1 (568 to end residues) using KKKSPGEYVNIEF as substrate after 40 mins in presence of [gamma-33ATP] by radiometric scintillation counting analysis
[17] = biological target: Serine/threonine-protein kinase TAO2 (Homo sapiens, UniProt Q9UL54); assay: Inhibition of recombinant human TAO2 (1 to 320 residues) using myelin basic protein as substrate incubated for 40 mins in presence of [gamma33P]ATP by radiometric scintillation counting analysis
[18] = biological target: Tyrosine-protein kinase JAK3 (Homo sapiens, UniProt P52333); assay: Inhibition of human recombinant JAK3 (781 to end residues) using GGEEEEYFELVKK as substrate after 40 mins by [gamma-33ATP] by radiometric scintillation counting analysis
Tyrosine-protein kinase JAK3, sequence (P52333 whole entry): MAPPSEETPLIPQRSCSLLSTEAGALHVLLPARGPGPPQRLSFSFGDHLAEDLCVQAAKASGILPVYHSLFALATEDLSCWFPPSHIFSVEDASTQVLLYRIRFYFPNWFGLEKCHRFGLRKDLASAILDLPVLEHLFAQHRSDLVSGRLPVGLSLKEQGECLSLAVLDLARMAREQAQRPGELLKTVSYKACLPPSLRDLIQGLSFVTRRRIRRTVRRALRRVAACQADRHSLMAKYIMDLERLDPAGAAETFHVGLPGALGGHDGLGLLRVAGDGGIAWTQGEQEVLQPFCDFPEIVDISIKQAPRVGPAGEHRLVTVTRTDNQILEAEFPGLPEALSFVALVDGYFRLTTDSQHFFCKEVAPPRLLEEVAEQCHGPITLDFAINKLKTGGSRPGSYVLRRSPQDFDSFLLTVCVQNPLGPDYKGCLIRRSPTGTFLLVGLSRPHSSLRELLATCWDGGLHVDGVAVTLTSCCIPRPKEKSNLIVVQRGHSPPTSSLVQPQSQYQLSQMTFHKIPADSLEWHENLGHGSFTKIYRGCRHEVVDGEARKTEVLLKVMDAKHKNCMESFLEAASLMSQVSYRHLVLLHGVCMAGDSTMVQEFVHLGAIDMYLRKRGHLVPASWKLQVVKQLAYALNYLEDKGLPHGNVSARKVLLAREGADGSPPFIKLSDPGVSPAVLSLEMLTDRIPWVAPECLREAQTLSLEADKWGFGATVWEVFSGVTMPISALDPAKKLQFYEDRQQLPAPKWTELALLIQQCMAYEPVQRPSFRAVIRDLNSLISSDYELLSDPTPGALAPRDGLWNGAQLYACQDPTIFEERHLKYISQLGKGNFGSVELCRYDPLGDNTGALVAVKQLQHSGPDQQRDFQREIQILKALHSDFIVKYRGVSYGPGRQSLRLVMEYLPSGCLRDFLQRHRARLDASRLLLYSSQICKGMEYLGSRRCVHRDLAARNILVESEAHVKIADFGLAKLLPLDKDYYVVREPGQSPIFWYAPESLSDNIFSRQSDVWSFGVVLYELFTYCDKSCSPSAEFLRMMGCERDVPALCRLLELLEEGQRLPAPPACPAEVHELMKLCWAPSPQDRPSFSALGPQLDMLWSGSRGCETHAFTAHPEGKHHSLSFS

[19] = biological target: PI3K p110 beta/p85 alpha (Homo sapiens, UniProt P42338); assay: Inhibition of recombinant human full length PI3K p110beta/p85alpha using phosphatidylinositol-4, 5-bisphosphate as substrate incubated for 40 mins in presence of [gamma33P]ATP by radiometric scintillation counting analysis; type: protein-complex assay
[20] = biological target: Serine/threonine-protein kinase PAK 3 (Homo sapiens, UniProt O75914); assay: Inhibition of recombinant full-length human PAK3 using RRRLSFAEPG as substrate measured after 40 mins in presence of [gamma33P]ATP by radiometric scintillation counting analysis
[21] = biological target: Serine/threonine-protein kinase NLK (Homo sapiens, UniProt Q9UBE8); assay: Inhibition of recombinant human NLK (121 to end residues) using protein as substrate measured after 40 mins in presence of [gamma33P]ATP by radiometric scintillation counting analysis
[22] = biological target: Serine/threonine-protein kinase Chk1 (Homo sapiens, UniProt O14757); assay: Inhibition of recombinant full length human CHK1 using KKKVSRSGLYRSP as substrate incubated for 40 mins in presence of [gamma-33ATP] by radiometric scintillation counting analysis
Serine/threonine-protein kinase Chk1, sequence (O14757 whole entry): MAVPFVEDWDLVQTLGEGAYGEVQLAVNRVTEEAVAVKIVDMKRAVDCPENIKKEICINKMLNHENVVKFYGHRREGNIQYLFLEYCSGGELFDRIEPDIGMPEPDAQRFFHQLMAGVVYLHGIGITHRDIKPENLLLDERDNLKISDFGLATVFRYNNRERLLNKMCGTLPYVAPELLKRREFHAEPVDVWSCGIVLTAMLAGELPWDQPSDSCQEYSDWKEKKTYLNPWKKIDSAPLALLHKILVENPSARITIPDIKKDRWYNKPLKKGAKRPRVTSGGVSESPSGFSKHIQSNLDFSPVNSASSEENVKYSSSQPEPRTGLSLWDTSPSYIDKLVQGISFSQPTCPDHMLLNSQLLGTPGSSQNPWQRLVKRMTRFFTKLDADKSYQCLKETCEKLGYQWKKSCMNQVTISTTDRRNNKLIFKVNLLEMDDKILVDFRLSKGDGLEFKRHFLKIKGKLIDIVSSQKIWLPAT

[23] = biological target: Serine/threonine-protein kinase PLK1 (Homo sapiens, UniProt P53350); assay: Inhibition of recombinant full-length human Plk1 using casein as substrate incubated for 40 mins in presence of [gamma33P]ATP by radiometric scintillation counting analysis
[24] = biological target: Serine/threonine-protein kinase PAK 6 (Homo sapiens, UniProt Q9NQU5); assay: Inhibition of recombinant human PAK6 (382 to end residues) using RRRLSFAEPG as substrate measured after 40 mins in presence of [gamma33P]ATP by radiometric scintillation counting analysis
[25] = biological target: Tyrosine-protein kinase Lck (Homo sapiens, UniProt P06239); assay: Inhibition of recombinant full length human LCK using […] as substrate after 40 mins in presence of [gamma-33ATP] by radiometric scintillation counting analysis

Measured: IC50

CN(C)c1ccc(C(=O)Nc2cccc(NC(=O)COc3ccc4c(=O)ccoc4c3)c2)cc1
> 10 µM: all assays above

Source: ChEMBL document CHEMBL4376834, “Discovery of 4H-Chromen-4-one Derivatives as a New Class of Selective Rho Kinase (ROCK) Inhibitors, which Showed Potent Activity in ex Vivo Diabetic Retinopathy Models” (J Med Chem, 2019)
